Assay results: patent US4342766A, “Novel dihydro-as-triazino[5,6-c]quinoline derivatives and a process for the preparation thereof” (priority 1980, dated 1982)

What was measured:
[1] = in vivo; settings: mouse, mice, female and male, 18 to 24 g, oral
Protocol: The acute toxicity of the compounds of the formula I was determined on both female and male mice weighing 18 to 24 g. The compounds were administered orally.

[2] = Anticonvulsive effect, inhibition of spasms provoked by pentamethylenetetrazole; assay type: in vivo, white mice; settings: for ED50: Mus musculus, white mice, oral 1 hour before pentamethylenetetrazole 125 mg/kg i.p., read-out: Inhibition of spasms provoked by pentamethylenetetrazole ED50 p.o.; for Therapeutic index LD50/ED50 (pentamethylenetetrazole): mice, p.o.
Protocol: The anticonvulsive effect of the compounds was also studied through the inhibition of the spasm provoked by pentamethylenetetrazole [6,7,8,9-tetrahydro-5H-tetrazoloazepine]. 125 mg/kg doses of pentamethylenetetrazole were administered intraperitoneally into white mice divided into groups consisting of 6 animals and the tonic extension spasms of the hind limbs were registered. The compounds to be tested were administered orally 1 hour before the injection of pentamethylenetetrazole.

[3] = Analgesic effect, acetic acid writhing test on mice; settings: for ED50: Mus musculus, po, read-out: Analgesic effect ED50 p.o.; for Therapeutic index LD50/ED50 (analgesic effect): mice, p.o., acetic acid writhing
Protocol: The analgesic effect was studied by means of the acetic acid writhing test on mice. After the intraperitoneal administration of 0.4 ml of 0.5 percent acetic acid, the writhing responses were counted between the fifth and tenth minutes. The writhing number was calculated as the percentage of the control value. The compounds tested were orally administered to the animals 1 hour prior to the treatment with acetic acid. […] Paracetamole and phenylbutazone were used as reference substance.

[4] = Anticonvulsive effect, inhibition of the spasm provoked by electroshock; assay type: in vivo, white mice; settings: for ED50: Mus musculus, white mice, oral 1 hour prior to electroshock (45 mA, 50 Hz, 0.4 sec), read-out: Inhibition of the spasm provoked by electroshock ED50 p.o.; for Therapeutic index LD50/ED50 (electroshock): mice, p.o.
Source text: The anticonvulsive effect of the novel compounds was studied on white mice weighing 20 to 25 g through the inhibition of the spasm developed by electroshock. The electroshock was provoked by means of corneal electrodes with a current intensity of 45 mA. The frequency of the current used was equivalent to 50 Hz, and the duration of each electroshock was 0.4 sec. The complete inhibition of the tonic extension of the hind limbs was taken as criterium of the anticonvulsive effect. The compounds to be tested were administered orally 1 hour prior to the electroshock.

[5] = Narcosis potentiating effect (hexobarbital sleeping time); assay type: in vivo, mice; settings: for ED50: Mus musculus, read-out: Narcosis potentiating effect ED50 p.o.; for Therapeutic index LD50/ED50 (narcosis potentiating effect): p.o., hexobarbital
Protocol: The narcosis potentiating effect of the novel compounds of the formula I was tested on groups consisting of 6 mice each. The animals belonging to the control group received an oral dosage of 20 ml/kg of 0.9 percent aqueous sodium chloride solution, whereas the other animals were treated orally with the compound to be tested.

[6] = Antiphlogistic effect, carrageenin paw test on rats (method of Winter); settings: for ED50: Rattus norvegicus, po, 3 h, read-out: Antiphlogistic effect ED50 p.o.; for Therapeutic index LD50/ED50 (antiphlogistic effect): p.o., carrageenin paw test on rats, LD50 from mice
Protocol: The antiphlogistic effect of the novel compounds of the invention was investigated on rats by the method of Winter [J. Pharm. […] 0.1 ml of a 1 percent carrageenin suspension was injected, subcutaneously, into the plantar region of one of the hind paws. The compounds to be tested were administered orally into the animals 1 hour before the injection of the carrageenine suspension. The volume of the treated paw was measured by mercury-plethysmometer before and 3 hours after injection.

[7] = Tetrabenazine antagonism; assay type: in vivo; settings: for ED50: Mus musculus, oral 30 minutes before tetrabenazine 50 mg/kg i.p., counts at 30, 60, 90 and 120 minutes, read-out: Tetrabenazine antagonism ED50 p.o.; for Therapeutic index LD50/ED50 (tetrabenazine antagonism): p.o.
Protocol: The tetrabenazine antagonizing effect of the novel compounds was tested on groups consisting of 10 mice each. The animals belonging to the control group received an oral dosage of 20 ml/kg of 0.9 percent aqueous sodium chloride solution, whereas the other animals were treated orally with the compound to be tested. 30 minutes after the introduction of the active agent or the vehicle, 50 mg/kg of tetrabenazine [3-isobutyl-9,10-dimethoxy-1,2,3,4,6,7-hexahydrobenzo[a]quinolizine-2-one]were administered intraperitoneally. The animals with closed palpebral fissures were counted 30, 60, 90 and 120 minutes after the administration of tetrabenazine. The data obtained in the individual measuring times were added, and the percentage inhibition related to the controls was calculated. Amitriptylin was employed as reference compound.

[8] = mice, oral 1 hour before hexobarbital 40 mg/kg i.v., 150 percent prolongation of sleeping time = positive response

Row | Structure (SMILES) | LD50 [1] | ED50 [2] | Therapeutic index LD50/ED50 (pentamethylenetetrazole) [2] | ED50 [3] | Therapeutic index LD50/ED50 (analgesic effect) [3] | ED50 [4] | Therapeutic index LD50/ED50 (electroshock) [4] | ED50 [5, 8] | Therapeutic index LD50/ED50 (narcosis potentiating effect) ([5]; mice) | ED50 [6] | ED50 [7] | Therapeutic index LD50/ED50 (tetrabenazine antagonism) [7] | also measured
1 | CC(=O)N1NC(C(C)(C)C)=Nc2cnc3ccccc3c21 [Example 9, 1-Acetyl-3-tert.-butyl-1,2-dihydro-as-triazino[5,6-c]quinoline] | 2000 mg/kg | 165 mg/kg | 12 | – | – | – | – | – | – | – | – | – | –
2 | CCCCC1=Nc2cnc3ccccc3c2N(C(C)=O)N1 [Example 6, 1-Acetyl-3-butyl-1,2-dihydro-as-triazino[5,6-c]quinoline] | 2000 mg/kg | 90 mg/kg | 22,2 | 320 mg/kg | 6 | 160 mg/kg | 12.5 | 125 mg/kg | 16 | 36 mg/kg | – | – | Therapeutic index LD50/ED50 (antiphlogistic effect) [6]: 55
3 | CC(=O)N1NC(CCC(C)C)=Nc2cnc3ccccc3c21 [Example 10, 1-Acetyl-3-(3'-methyl-1'-butyl)-1,2-dihydro-as-triazino[5,6-c]quinoline] | 2000 mg/kg | – | – | 100 mg/kg | 20 | – | – | 100 mg/kg | 20 | 200 mg/kg | 14.5 mg/kg | 138 | Therapeutic index LD50/ED50 (antiphlogistic effect) [6]: 10
4 | CN(C)CCC=C1c2ccccc2CCc2ccccc21 [amitriptylin, 5-(3-dimethylaminopropylidene)-10,11-dihydro-5H-dibenzo[a,d]cycloheptene, reference compound] | – | – | – | – | – | – | – | – | – | – | 12 mg/kg | 19 | –
5 | CC(=O)N1NC(CC(C)C)=Nc2cnc3ccccc3c21 [Example 8, 1-Acetyl-3-isobutyl-1,2-dihydro-as-triazino[5,6-c]quinoline] | 2000 mg/kg | 72 mg/kg | 27,8 | – | – | 200 mg/kg | 10 | 70 mg/kg | 28.5 | – | 20 mg/kg | 100 | –
6 | CCCCC1C(=O)N(c2ccccc2)N(c2ccccc2)C1=O [phenylbutazone, 4-butyl-1,2-diphenylpyrazolidine-3,5-dione, reference compound] | – | – | – | 60 mg/kg | – | – | – | – | – | 100 mg/kg | – | – | –
7 | CCCCCC1=Nc2cnc3ccccc3c2N(C(C)=O)N1 [Example 1, 1-acetyl-3-amyl-1,2-dihydro-as-triazino[5,6-c]quinoline] | 2000 mg/kg | – | – | 125 mg/kg | 16 | – | – | 200 mg/kg | 10 | 100 mg/kg | – | – | Therapeutic index LD50/ED50 (antiphlogistic effect) [6]: 20
8 | CCC(CC)C1=Nc2cnc3ccccc3c2N(C(C)=O)N1 [Example 11, 1-Acetyl-3-[1'-ethyl-1'-propyl]-1,2-dihydro-as-triazino[5,6-c]quinoline] | – | – | – | – | – | – | – | – | – | – | 54 mg/kg | 37 | –
9 | CC(=O)Nc1ccc(O)cc1 [paracetamole, p-hydroxyacetanilide, reference compound] | 540 mg/kg | – | – | 180 mg/kg | 3 | – | – | – | – | – | – | – | –
10 | CCCC(C)(COC(N)=O)COC(N)=O [meprobamate, 2-methyl-2-propylpropane-1,3-diol dicarbamate, reference compound] | – | – | – | – | – | – | – | – | 4.2 | – | – | – | ED50 ([5]; po): 260 mg/kg
11 | CN1C(=O)OC(C)(C)C1=O [trimethadione, 3,5,5-trimethyloxazolidine-2,4-dione, reference compound] | 2050 mg/kg | 490 mg/kg | 4,3 | – | – | 400 mg/kg | 5.3 | – | – | – | – | – | –
12 | CC(=O)N1C(c2ccccc2)=NNc2c1cnc1ccccc21 [Example 3, 4-Acetyl-3-phenyl-1,4-dihydro-as-triazino[5,6-c]quinoline] | 2000 mg/kg | – | – | – | – | – | – | 150 mg/kg | 13.3 | – | – | – | –
13 | CCCCCCCCC1=Nc2cnc3ccccc3c2N(C(C)=O)N1 [Example 7, 1-Acetyl-3-octyl-1,2-dihydro-as-triazino[5,6-c]quinoline] | 2000 mg/kg | 350 mg/kg | 5,7 | – | – | 450 mg/kg | 4.4 | – | – | – | – | – | –
